Reference: publication PMC6348381, “Discovery of an MLLT1/3 YEATS Domain Chemical Probe” (Angewandte Chemie (International Ed. in English), 2018)

Tests used:
Type in all cases: binding
ATAD2A = target: T1, ATAD2A (Homo sapiens, UniProt Q6PL18); test: Thermal shift assay, ATAD2A
T1 construct: purchased in-house (SGC bromodomain thermal shift / AlphaScreen panel)
T1 sequence (Q6PL18 1-1390): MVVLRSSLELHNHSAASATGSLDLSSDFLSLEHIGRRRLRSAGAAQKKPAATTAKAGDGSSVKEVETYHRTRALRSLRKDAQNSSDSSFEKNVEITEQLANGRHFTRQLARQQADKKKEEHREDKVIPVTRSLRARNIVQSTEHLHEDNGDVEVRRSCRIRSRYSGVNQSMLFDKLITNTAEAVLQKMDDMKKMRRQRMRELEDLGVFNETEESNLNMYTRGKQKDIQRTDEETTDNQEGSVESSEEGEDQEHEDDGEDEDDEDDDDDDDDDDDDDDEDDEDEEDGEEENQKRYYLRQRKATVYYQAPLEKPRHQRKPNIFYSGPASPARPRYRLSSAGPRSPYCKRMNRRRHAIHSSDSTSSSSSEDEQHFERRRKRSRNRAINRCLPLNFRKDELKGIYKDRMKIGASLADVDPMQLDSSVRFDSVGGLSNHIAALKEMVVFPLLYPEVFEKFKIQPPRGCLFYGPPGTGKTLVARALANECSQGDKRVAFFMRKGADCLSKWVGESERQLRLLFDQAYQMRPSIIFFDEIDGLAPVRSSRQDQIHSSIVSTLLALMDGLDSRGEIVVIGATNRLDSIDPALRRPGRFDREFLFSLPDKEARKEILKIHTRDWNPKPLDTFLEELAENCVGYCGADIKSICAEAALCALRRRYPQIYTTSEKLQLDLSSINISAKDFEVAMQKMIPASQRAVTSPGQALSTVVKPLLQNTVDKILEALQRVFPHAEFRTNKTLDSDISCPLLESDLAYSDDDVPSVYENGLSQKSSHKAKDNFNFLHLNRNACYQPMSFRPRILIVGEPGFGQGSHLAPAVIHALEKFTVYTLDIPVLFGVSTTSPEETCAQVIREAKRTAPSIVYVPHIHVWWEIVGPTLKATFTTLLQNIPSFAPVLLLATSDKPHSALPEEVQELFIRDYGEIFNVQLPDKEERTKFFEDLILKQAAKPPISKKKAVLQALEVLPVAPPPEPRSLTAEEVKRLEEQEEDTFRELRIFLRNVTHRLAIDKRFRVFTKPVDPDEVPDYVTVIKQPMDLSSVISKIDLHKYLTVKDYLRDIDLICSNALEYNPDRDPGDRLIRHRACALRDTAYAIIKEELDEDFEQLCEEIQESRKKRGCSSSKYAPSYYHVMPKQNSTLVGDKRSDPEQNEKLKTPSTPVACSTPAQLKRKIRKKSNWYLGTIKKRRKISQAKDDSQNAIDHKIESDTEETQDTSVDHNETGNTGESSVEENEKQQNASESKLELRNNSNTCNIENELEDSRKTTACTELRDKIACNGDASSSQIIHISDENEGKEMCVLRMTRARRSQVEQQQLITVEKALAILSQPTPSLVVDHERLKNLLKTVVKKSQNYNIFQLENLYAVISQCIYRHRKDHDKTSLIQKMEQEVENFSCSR
Procedure: (§1) II.VII Thermal Shift Assay[6]
(§2) Thermal melting experiments were carried out using an Mx3005p Real Time PCR machine (Stratagene). Proteins were buffered in 10 mM HEPES pH 7.5, 500 mM NaCl and assayed in a 96-well plate at a final concentration of 2 μM in 20 μL volume. Compounds were added at a final concentration of 50 μM. SYPRO Orange (Molecular Probes) was added as a fluorescence probe at a dilution of 1:1000. Excitation and emission filters for the SYPRO-Orange dye were set to 465 nm and 590 nm, respectively. The temperature was raised with a step of 3 °C per minute from 25 °C to 96 °C and fluorescence readings were taken at each interval. The unfolding curves were fitted using the Boltzmann equation to determine the middle point of the transition.

MLL = target: T2, MLL (Homo sapiens, UniProt Q03164); test: Thermal shift assay, MLL
T2 construct: purchased in-house (SGC bromodomain thermal shift / AlphaScreen panel)
T2 sequence (Q03164 whole entry): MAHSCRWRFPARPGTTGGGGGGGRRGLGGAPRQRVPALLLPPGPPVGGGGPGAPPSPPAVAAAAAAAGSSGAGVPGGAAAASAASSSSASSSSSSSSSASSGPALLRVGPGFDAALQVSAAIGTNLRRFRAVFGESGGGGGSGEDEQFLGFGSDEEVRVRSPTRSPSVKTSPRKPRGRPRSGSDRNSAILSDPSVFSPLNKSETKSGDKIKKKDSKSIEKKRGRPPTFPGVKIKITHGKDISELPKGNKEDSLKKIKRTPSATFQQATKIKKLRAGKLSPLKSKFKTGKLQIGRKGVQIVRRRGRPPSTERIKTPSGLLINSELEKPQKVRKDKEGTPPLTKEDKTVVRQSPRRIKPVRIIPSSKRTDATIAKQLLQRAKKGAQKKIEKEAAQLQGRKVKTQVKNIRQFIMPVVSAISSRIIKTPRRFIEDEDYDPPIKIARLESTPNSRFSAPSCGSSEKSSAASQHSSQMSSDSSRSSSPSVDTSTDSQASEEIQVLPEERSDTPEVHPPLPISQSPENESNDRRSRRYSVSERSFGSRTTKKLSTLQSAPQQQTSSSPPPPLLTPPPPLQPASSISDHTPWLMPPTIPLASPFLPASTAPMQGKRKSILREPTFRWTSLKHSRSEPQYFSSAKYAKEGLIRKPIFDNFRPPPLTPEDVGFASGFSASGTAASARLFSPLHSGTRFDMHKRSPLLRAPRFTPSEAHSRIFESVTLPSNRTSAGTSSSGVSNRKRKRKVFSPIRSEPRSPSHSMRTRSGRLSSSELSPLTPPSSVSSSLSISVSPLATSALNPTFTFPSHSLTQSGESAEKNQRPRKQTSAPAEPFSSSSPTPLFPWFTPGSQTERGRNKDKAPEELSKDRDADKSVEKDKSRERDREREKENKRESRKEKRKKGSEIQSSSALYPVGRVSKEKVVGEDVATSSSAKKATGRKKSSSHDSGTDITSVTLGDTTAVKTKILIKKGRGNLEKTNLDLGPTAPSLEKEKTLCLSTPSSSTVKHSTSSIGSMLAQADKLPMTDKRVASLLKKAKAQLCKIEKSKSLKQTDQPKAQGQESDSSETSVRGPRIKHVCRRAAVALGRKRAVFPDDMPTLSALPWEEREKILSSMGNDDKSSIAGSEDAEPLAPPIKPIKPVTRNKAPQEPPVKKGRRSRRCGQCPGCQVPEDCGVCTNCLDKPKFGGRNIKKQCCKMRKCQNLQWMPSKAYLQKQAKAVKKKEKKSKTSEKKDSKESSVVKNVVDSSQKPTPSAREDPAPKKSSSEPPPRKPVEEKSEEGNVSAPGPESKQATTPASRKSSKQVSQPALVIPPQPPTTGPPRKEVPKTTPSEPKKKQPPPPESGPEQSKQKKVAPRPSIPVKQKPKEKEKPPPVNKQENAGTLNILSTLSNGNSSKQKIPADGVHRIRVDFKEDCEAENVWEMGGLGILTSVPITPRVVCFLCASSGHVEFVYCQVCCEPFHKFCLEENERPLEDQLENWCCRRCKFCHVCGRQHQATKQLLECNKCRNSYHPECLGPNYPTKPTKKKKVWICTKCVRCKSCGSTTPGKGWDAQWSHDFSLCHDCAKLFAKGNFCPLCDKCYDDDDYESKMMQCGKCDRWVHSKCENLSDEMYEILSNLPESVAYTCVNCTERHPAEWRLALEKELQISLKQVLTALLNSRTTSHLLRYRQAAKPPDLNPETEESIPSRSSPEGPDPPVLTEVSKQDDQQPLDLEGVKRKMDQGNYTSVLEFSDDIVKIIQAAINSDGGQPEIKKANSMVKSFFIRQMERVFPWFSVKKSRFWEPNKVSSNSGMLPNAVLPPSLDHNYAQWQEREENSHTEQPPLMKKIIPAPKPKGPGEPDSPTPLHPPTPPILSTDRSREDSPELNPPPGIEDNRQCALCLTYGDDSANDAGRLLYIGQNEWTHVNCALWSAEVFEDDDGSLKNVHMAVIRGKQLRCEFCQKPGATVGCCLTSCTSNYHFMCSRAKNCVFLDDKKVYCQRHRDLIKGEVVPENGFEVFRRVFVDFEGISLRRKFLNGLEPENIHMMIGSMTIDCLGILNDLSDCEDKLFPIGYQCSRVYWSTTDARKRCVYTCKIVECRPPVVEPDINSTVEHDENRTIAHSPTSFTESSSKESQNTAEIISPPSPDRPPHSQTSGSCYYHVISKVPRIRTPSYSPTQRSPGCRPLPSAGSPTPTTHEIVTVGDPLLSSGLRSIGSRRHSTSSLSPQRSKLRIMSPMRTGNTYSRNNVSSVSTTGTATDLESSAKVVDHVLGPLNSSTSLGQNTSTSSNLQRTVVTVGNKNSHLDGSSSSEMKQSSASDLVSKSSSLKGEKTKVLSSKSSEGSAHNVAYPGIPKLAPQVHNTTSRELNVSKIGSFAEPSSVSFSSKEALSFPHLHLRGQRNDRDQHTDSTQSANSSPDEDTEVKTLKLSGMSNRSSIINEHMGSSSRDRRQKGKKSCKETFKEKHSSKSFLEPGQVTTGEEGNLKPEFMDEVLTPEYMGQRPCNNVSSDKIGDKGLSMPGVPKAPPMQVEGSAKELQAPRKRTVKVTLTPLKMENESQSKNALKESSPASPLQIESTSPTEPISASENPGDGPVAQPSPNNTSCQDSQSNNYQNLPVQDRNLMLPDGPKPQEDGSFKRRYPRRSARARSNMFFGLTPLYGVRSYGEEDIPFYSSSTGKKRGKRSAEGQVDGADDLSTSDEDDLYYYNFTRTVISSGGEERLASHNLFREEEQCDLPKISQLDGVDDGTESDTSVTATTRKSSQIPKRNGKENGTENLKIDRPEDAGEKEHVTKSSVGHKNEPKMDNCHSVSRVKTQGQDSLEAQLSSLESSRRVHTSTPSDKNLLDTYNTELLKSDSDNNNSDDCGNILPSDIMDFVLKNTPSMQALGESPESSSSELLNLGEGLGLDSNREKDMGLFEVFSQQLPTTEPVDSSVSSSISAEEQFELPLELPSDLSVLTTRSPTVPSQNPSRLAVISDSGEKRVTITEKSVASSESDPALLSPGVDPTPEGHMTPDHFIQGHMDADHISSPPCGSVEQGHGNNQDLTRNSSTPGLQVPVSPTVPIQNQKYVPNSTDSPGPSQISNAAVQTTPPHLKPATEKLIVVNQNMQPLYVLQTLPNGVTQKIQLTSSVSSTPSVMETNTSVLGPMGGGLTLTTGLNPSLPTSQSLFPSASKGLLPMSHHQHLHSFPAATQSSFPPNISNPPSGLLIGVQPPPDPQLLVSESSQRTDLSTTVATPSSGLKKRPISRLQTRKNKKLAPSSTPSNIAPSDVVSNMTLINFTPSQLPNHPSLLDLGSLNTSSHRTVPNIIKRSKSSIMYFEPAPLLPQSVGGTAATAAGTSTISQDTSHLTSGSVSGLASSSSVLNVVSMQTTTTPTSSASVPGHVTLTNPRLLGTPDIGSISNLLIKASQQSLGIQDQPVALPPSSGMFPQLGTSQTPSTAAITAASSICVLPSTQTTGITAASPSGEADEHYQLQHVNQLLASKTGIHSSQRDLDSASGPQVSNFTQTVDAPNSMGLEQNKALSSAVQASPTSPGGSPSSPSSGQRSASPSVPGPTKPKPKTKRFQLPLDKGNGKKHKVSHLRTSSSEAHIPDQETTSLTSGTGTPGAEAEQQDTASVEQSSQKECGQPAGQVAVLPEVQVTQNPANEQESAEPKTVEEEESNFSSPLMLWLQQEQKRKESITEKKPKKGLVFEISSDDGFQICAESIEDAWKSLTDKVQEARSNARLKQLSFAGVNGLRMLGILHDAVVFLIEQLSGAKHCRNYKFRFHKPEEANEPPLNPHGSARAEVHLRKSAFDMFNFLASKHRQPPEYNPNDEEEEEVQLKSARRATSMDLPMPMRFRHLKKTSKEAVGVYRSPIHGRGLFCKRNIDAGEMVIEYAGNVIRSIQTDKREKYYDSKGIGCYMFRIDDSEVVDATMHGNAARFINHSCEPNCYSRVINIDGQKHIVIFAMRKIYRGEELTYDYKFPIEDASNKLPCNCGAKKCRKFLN

BRPF3 = target: T3, BRPF3 (Homo sapiens, UniProt Q9ULD4); test: Thermal shift assay, BRPF3
T3 construct: purchased in-house (SGC bromodomain thermal shift / AlphaScreen panel)
T3 sequence (Q9ULD4 1-1205): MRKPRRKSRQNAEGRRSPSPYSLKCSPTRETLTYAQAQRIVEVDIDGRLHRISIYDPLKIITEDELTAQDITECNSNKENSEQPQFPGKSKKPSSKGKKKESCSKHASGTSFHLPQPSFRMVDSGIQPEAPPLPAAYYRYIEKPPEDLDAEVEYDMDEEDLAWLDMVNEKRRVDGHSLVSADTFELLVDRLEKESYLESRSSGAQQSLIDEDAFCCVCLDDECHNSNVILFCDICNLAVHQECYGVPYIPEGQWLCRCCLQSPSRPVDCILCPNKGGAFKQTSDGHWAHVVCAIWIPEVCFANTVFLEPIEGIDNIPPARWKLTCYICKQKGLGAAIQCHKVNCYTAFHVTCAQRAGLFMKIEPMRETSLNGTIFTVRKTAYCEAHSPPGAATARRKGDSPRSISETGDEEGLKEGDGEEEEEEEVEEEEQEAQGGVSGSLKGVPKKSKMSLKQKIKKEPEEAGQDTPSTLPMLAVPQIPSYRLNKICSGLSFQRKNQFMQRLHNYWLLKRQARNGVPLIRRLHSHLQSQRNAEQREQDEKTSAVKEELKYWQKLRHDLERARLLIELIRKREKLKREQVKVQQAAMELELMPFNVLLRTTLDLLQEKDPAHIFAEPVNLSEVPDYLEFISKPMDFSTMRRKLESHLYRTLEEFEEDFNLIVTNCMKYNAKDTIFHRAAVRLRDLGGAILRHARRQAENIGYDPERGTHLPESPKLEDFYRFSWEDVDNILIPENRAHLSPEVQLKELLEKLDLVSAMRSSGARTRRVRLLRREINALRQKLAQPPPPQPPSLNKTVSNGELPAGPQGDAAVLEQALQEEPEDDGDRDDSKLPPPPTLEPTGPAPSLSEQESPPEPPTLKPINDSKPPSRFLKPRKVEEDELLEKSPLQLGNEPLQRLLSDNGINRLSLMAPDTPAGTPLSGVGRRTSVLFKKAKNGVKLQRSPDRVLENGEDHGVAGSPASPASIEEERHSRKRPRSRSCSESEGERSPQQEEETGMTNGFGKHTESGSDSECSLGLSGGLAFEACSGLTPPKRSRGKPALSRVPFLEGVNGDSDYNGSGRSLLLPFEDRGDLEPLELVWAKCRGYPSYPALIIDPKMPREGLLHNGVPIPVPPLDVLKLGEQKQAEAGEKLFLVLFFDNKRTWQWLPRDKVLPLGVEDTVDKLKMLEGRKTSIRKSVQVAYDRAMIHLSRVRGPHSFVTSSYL
Procedure: as §1, §2

Thermal stabilisation, ATAD2A (ATAD2A; 10 µM compound concentration) | Thermal stabilisation, MLL (MLL; 10 µM compound concentration) | Thermal stabilisation, BRPF3 (BRPF3; 10 µM compound concentration) | Structure (SMILES) | Thermal stabilisation, ATAD2A (ATAD2A; 50 μM compound) | Thermal stabilisation, MLL (MLL; 50 μM compound) | Thermal stabilisation, BRPF3 (BRPF3; 50 μM compound)
 |  |  | COC(=O)c1ccc(C(=O)Nc2ccc3[nH]c(CN4CCCCC4)nc3c2)cc1 [Compound 1] | 0.54 | -0.18 | 1.015
 |  |  | C[C@H]1CCCN1Cc1nc2cc(NC(=O)c3ccc4c(cnn4C)c3)ccc2[nH]1 [Compound 92] | 0.56 | -1.31 | -0.245
0.67 | 0.75 | 1 | CCOC(=O)Nc1cc(-c2ccc(C)c(NS(C)(=O)=O)c2)nn2c(C)nnc12 [Bromosporine, reference compound] |  |  | 
